Experimental data: patent US4141972A, “Purine nucleoside 5'-phosphate (mono, di or tri) 3'(2')-diphosphates and processes for their preparation” (priority 1974, dated 1979)

What was measured:
L1210 cells = assay: Effect of nucleotides on the life span of mice inoculated with L1210 cells; assay type: in vivo; details: for 30 days survivors / MST (mean survival time) / T/C: L1210, mice
Excerpt: The characteristic of the said nucleotide pyrophosphotransferase is that it inhibits the growth of Hela S3, L1210 and L5178Y cells in culture at a relatively low concentration, 5 to 10 units/ml. […] The nucleotide or enzyme is combined with a conventional pharmaceutically acceptable nontoxic carrier for intraperitoneal administration.
Tumor: L1210, Sloan-Kettering line, 10^5 cells/head, i.p.
MST: Mean survival time

[1] = tested on: nucleotide pyrophosphotransferase, enzymes obtained from the six actinomycetes (Streptomyces adephospholyticus A4668 ATCC 31122, St. aspergilloides ATCC 14808 …); assay: Inhibitory action of nucleosides, nucleotides, bases and general enzyme inhibitors on nucleotide pyrophosphotransferase; assay type: biochemical
Experimental: (1) Inorganic phosphate determination by a modification of Nakamura's method: The standard reaction mixture contained 0.25 M glycine-NaOH buffer (pH 10.0), 0.2 ml.; 0.05 M MgCl2, 0.05 ml.; 0.05 M ATP, 0.05 ml.; the enzyme solution (to be diluted by buffer if necessary), 0.1 ml.; and distilled water, 0.1 ml. in a final volume of 0.5 ml. After incubation at 37° C. for 10 minutes, the reaction was terminated by adding 0.5 ml. of 0.2 N acetic acid, and chilling on ice. Immediately, 3 ml. of developing reagent (amidol-molybdate) was added and the mixture was allowed to stand for 10 minutes at 37° C. The optical density was measured at 750 nm and the moles of Pi released were calculated using the standard curve for Pi.
The reaction mixture contained 20 mM adenosine-8-3H-triphosphate (2 mCi/m mole), 5 mM MgCl2, 62.5 mM glycine-NaOH buffer (pH 10.0) and 0.1 ml. of enzyme solution to give a total volume of 0.2 ml. The mixture was incubated at 37° C. for 10 minutes and the incubation was terminated by addition of 0.01 ml. of 1 N acetic acid. Twenty microliters of the reaction mixture were spotted on a polyethyleneimine (PEI) cellulose F thin layer sheet (E. Merck AG), dried and developed in 0.75 M KH2 PO4, pH 3.4, for two hours at room temperature. After chromatography the sheets were dried and exposed to ultraviolet light provided by a Manasul UV lamp to localize the pppApp and AMP formed. The spots on the chromatograms corresponding to pppApp and AMP were cut out and placed in a scintillation vial containing 0.5 ml. of 0.1 N HCl. Vials were boiled for 15 minutes to elute nucleotides adsorbed on the PEI-cellulose and radioactivity was measured by 10 ml. of BRAY Solution in a liquid scintillation counter. A unit of enzyme activity is defined as the amount of enzyme forming 1μ mole of pppApp or AMP per minute under the above condition.
Inhibitory actions of 40 substances which are general enzyme inhibitors such as nucleosides, nucleotides and their bases were examined for their effect on the enzymes obtained from the six actinomycetes.

[2] = 5 mg/kg.day i.p. once daily for 10 days
[3] = 10 mg/kg.day i.p. once daily for 10 days
[4] = 20 mg/kg.day i.p. once daily for 10 days
[5] = BDF1 mice, L1210 i.p., i.p. once daily for 10 days
[6] = other nucleic acids, concentration not given
[7] = 10 mM each, non-substrate nucleic acids

SMILES: Nc1ncnc2c1ncn2[C@@H]1O[C@H](COP(=O)(O)OP(=O)(O)OP(=O)(O)O)[C@@H](O)[C@H]1O [ATP 2Na]
- 30 days survivors (L1210 cells; [2]): 0/5
- MST (mean survival time) (L1210 cells; [2]): 8.7 days
- T/C (L1210 cells; [2]): 98%
- 30 days survivors (L1210 cells; [3]): 0/5
- MST (mean survival time) (L1210 cells; [3]): 9.2 days
- T/C (L1210 cells; [3]): 103%
- 30 days survivors (L1210 cells; [4]): 0/5
- MST (mean survival time) (L1210 cells; [4]): 8.6 days
- T/C (L1210 cells; [4]): 97%
- Effect on lifespan of tumor-bearing mice (L1210 cells; [5]): not effective

SMILES: Nc1ccn([C@@H]2O[C@H](COP(=O)(O)O)[C@@H](O)[C@H]2O)c(=O)n1 [CMP]
- Inhibition of enzyme activity [1, 6]: not inhibitory

SMILES: NC(=O)c1ccc[n+]([C@@H]2O[C@H](COP(=O)([O-])OP(=O)(O)OC[C@H]3O[C@@H](n4cnc5c(N)ncnc54)[C@H](O)[C@@H]3O)[C@@H](O)[C@H]2O)c1 [NAD]
- Inhibition of enzyme activity [1, 6]: not inhibitory

SMILES: Nc1ncnc2nc[nH]c12 [adenine]
- Inhibition of enzyme activity [1, 6]: not inhibitory

SMILES: Nc1ncnc2c1ncn2[C@@H]1O[C@H](CO)[C@@H](O)[C@H]1O [adenosine]
- Inhibition of enzyme activity [1, 6]: not inhibitory

SMILES: Nc1ccn([C@@H]2O[C@H](CO)[C@@H](O)[C@H]2O)c(=O)n1 [cytidine]
- Inhibition of enzyme activity [1, 6]: not inhibitory

SMILES: Nc1cc[nH]c(=O)n1 [cytosine]
- Inhibition of enzyme activity [1, 6]: not inhibitory

SMILES: Nc1nc2c(ncn2[C@H]2C[C@H](O)[C@@H](COP(=O)(O)OP(=O)(O)O)O2)c(=O)[nH]1 [d-GDP]
- Inhibition of enzyme activity [1, 7]: marked inhibition

SMILES: Nc1nc2c(ncn2[C@H]2C[C@H](O)[C@@H](COP(=O)(O)OP(=O)(O)OP(=O)(O)O)O2)c(=O)[nH]1 [d-GTP]
- Inhibition of enzyme activity [1, 7]: marked inhibition

SMILES: Nc1nc2nc[nH]c2c(=O)[nH]1 [guanine]
- Inhibition of enzyme activity [1, 7]: marked inhibition

SMILES: Nc1nc2c(ncn2[C@@H]2O[C@H](CO)[C@@H](O)[C@H]2O)c(=O)[nH]1 [guanosine]
- Inhibition of enzyme activity [1, 7]: marked inhibition

SMILES: O=c1[nH]cnc2nc[nH]c12 [hypoxanthine]
- Inhibition of enzyme activity [1, 6]: not inhibitory

SMILES: OC[C@H]1O[C@@H](n2cnc3c(O)ncnc32)[C@H](O)[C@@H]1O [inosine]
- Inhibition of enzyme activity [1, 6]: not inhibitory

SMILES: Nc1ncnc2c1ncn2[C@@H]1O[C@H](COP(=O)(O)OP(=O)(O)OP(=O)(O)O)[C@@H](OP(=O)(O)OP(=O)(O)O)[C@H]1O [pppApp 7Li, adenosine 5'-triphosphate 3' (2')-diphosphate]
- 30 days survivors (L1210 cells; [2]): 1/5
- MST (mean survival time) (L1210 cells; [2]): 14.0 days
- T/C (L1210 cells; [2]): 157%
- 30 days survivors (L1210 cells; [3]): 1/5
- MST (mean survival time) (L1210 cells; [3]): 12.5 days
- T/C (L1210 cells; [3]): 140%
- 30 days survivors (L1210 cells; [4]): 2/5
- MST (mean survival time) (L1210 cells; [4]): 16.8 days
- T/C (L1210 cells; [4]): 189%
- Accumulation of abdominal dropsy (L1210 cells; [5]): distinctly suppressed
- Effect on lifespan of tumor-bearing mice (L1210 cells; [5]): prolonged the lifespan
- Toxicity to the mice (L1210 cells; [5]): without causing toxicity

SMILES: O=c1cc[nH]c(=O)[nH]1 [uracil]
- Inhibition of enzyme activity [1, 6]: not inhibitory

SMILES: O=c1ccn([C@@H]2O[C@H](CO)[C@@H](O)[C@H]2O)c(=O)[nH]1 [uridine]
- Inhibition of enzyme activity [1, 6]: not inhibitory

SMILES: O=c1[nH]c(=O)c2[nH]cnc2[nH]1 [xanthine]
- Inhibition of enzyme activity [1, 6]: not inhibitory
